The subject of one data set is mice. Description: Acute oral toxicity in mice. Type of data set: in vivo. Conditions: mouse. On the procedure:
(§1) By way of example there are described below the comparative tests made on difluorohydrate of N,N'-di(hydroxyethyl) piperazine and on fluorohydrate of hexadecylamine or "ELMEX 242".
(§2) The acute toxidity was studies in rats and in mice.
(§3) The animals came from a homogeneous breed. The mice weighed between 19 and 21 g and the rats weighed from 120 to 140 g. The mice were grouped in lots of 10 and the rats in lots of 8.
(§4) The administrations took place orally at a volume of 0.5 ml per 20 g of mouse and 1 ml per 100 g of rat. The LD50 was determined by the method of Lichfield and Wilcoxon.
(§5) As regards the difluorohydrate of N,N'-di(hydroxyethyl) piperazine, the administered solution was prepared by diluting the mother solution to 65.4%, the dilutions being made after having weighed this solution. The administered dose is expressed by weight, taking account of the indicated strength of this solution.
(§6) For the solid "ELMEX 242" an aqueous suspension was prepared with the aid of solubilizing agents (e.g. Tween-polyoxyethylene sorbitan monolaurate). A very thick suspension is then obtained which tends to foam heavily, is difficult to get into the esophageal sound, and the determination of its volume is rendered difficult by the foam.
(§7) The results obtained with the "ELMEX" are therefore rather approximate.

A short description of data set [1]: Acute oral toxicity in mice. Particulars: in vivo, mouse, Lichfield and Wilcoxon. The data set is classed as in vivo. On the procedure: as §1, §2, §3, §4, §5, §6, §7
The next data set concerns rats. Briefly: in vivo. The data set is classed as in vivo. Particulars: rat, oral; for Deaths: D + 10, 8 per lot. On the procedure: as §1, §2, §3, §4, §5, §6, §7
A short description of a further data set: Solubility. The data set is classed as physicochemical.
A short description of data set [2]: Penetration of fluorine 18 into dental enamel after topical application (Muhlemann biopsy). On the set-up: species or system children. The source says:
The anticariogenic activity of the difluorohydrate of N,N'-di(hydroxy-ethyl) piperazine has been evidenced by comparison with sodium fluoride known for its cariopreventive topical properties. A comparative study has been made of the penetration into the dental enamel of the fluorine contained in the molecule according to the invention and of the fluorine contained in sodium fluoride.
For this comparison the difluorohydrate of N,N'-di(hydroxy-ethyl) piperazine was marked at the fluorine 18, by isotopic exchange by dissolving some crystals of the product according to the invention in a solution of pure fluorine 18 without entrainer. The same was done for the sodium fluoride.
The study of the penetration of the fluorine into the enamel was made on several teeth to compare the behavior of the product of the invention and of sodium fluoride in supplying fluorine and in the penetration of the latter into the deepest layers of the dental tissue.
The tests were performed on 30 premolar teeth taken from normal children 9 to 11 years old. Eighteen teeth were treated by topical application of the radioactive solutions of the difluoro-hydrate of N,N'-di(hydroxy-ethyl) piperazine or of NaF adjusted to pH=3.5; the other 12 were treated with the same solutions adjusted to a pH of 7.4.
The radioactive solutions are obtained by dissolving 69 mg of the difluorohydrate and 81.3 mg of NaF, respectively, in 1 and 3 ml of fluorine 18 solution without entrainer. Thus solutions titering 1.23% fluorine are obtained.
As the difluorohydrate solution is already at pH=3.5, it is sufficient to acidify the NaF solution by addition of about 0.2 ml hydrochloric acid 6 M, to 3 ml of the radioactive solution.
In this case, the difluorohydrate's nature of organic salt can be preserved and its solution neutralized at 1.23% of fluorine in 1 ml by addition of about 110 mg of its N,N'-di(hydroxyethyl) piperazine base.
For the experimentation one determines two enamel plagues on each tooth. For this, one applies on the crowns, separated from each other by 2 or 3 mm, two round disks of a diameter of 3 mm cut out from adhesive tape. The crown is then covered with a layer of impermeable varnish. When the varnish is dry, the patches of adhesive tape are removed, thus bearing the two zones of enamel to be treated.
The spot application of the fluorinated solution is done by means of a sponge imbibed with 0.5 ml of the solution. This sponge is inserted in a polyethylene tube to limit the surface of contact between tooth and sponge to the circumference of the enamel zone treated.
The sampling of the enamel is done by Muhlemann's biopsy technique: A patch of blotting paper impregnated with 4 microliters of perchloric acid 2 M is applied on the trated enamel for 30 seconds. The enamel is dried with a second patch of blotting paper. It is on these patches which contain the dissolved enamel that we measure the radioactivity.
There are given in Table I all the results relating to the acid treatment, in Table II all the results relating to the treatment at neutral pH. The fluorine values are those obtained by measuring the radioactivity of the samples.
The columns […] and N2 represent the mass of fluorine measured on the second biopsy.
We have marked R1 and R1 and R2 the ratios G1 /G2 and N1 /N2, and R3 the ratio. [formula] R1 and R2 permitting to compare the quantities of fluorine at the same depth. R3 permits comparing the accumulation of fluorine in the tooth.

`CCCCCCCCCCCCCCCCN` [ELMEX 242, fluorohydrate of hexadecylamine]: the “course: death and recovery” value with mice is given as “Death occurs in a few hours; for others recovery is also fairly rapid”. Besides, in the data set with mice, the symptoms entry was “The animals have diarrhea. The mice are totally immobile and tremble”. For the same compound, the Deaths in the data set with mice (600 mg/kg, D + 1, 10 per lot) was determined as 0; with mice (600 mg/kg, D + 2, 10 per lot) it was 0; in the data set on mice (600 mg/kg, D + 5, 10 per lot), 0; with mice (600 mg/kg, D + 10, 10 per lot), 0; in the data set on mice (800 mg/kg, D + 1, 10 per lot), 0; in the data set on mice (800 mg/kg, D + 2, 10 per lot), 0. Moreover, the Deaths was 0 in the data set with mice (800 mg/kg, D + 5, 10 per lot); 0 in the data set with mice (800 mg/kg, D + 10, 10 per lot); 1 with mice (1000 mg/kg, D + 1, 10 per lot); 2 with mice (1000 mg/kg, D + 2, 10 per lot); 2 in the data set with mice (1000 mg/kg, D + 5, 10 per lot); 2 in the data set on mice (1000 mg/kg, D + 10, 10 per lot). Moreover, the Deaths in the data set on mice (1250 mg/kg, D + 1, 10 per lot) was 1; in the data set on mice (1250 mg/kg, D + 2, 10 per lot), 2; in the data set with mice (1250 mg/kg, D + 5, 10 per lot), 3; with mice (1250 mg/kg, D + 10, 10 per lot), 3; with mice (1500 mg/kg, D + 1, 10 per lot) it was 4; with mice (1500 mg/kg, D + 2, 10 per lot) it was 7. Besides, the Deaths with mice (1500 mg/kg, D + 5, 10 per lot) is listed as 9; with mice (1500 mg/kg, D + 10, 10 per lot), 9; in the data set on mice (1750 mg/kg, D + 1, 10 per lot) it was 3; with mice (1750 mg/kg, D + 2, 10 per lot), 4; in the data set on mice (1750 mg/kg, D + 5, 10 per lot) it was 9; with mice (1750 mg/kg, D + 10, 10 per lot), 9. Further, the Deaths is recorded as 9 with mice (2000 mg/kg, D + 1, 10 per lot); 10 with mice (2000 mg/kg, D + 2, 10 per lot); 10 with mice (2000 mg/kg, D + 5, 10 per lot); 10 in the data set on mice (2000 mg/kg, D + 10, 10 per lot); 10 with mice (2500 mg/kg, D + 1, 10 per lot); 10 with mice (2500 mg/kg, D + 2, 10 per lot). Moreover, the Deaths in the data set with mice (2500 mg/kg, D + 5, 10 per lot) was determined as 10; in the data set with mice (2500 mg/kg, D + 10, 10 per lot) it was 10; in the data set with rats (125 mg/kg), 0; in the data set with rats (150 mg/kg), 0; in the data set on rats (500 mg/kg) it was 0. Also, the LD50 at 240 h in data set [1] is 1250 mg/kg. In addition, in the data set on rats, the symptoms / behavior entry is given as “The behavior of the animals is normal”.

For `OCCN1CCN(CCO)CC1` [DI-IODOHYDRATE OF N,N'-DI-(BETA-HYDROXY-ETHYL) PIPERAZINE], in the data set “Solubility”, the “solubility in water, in alcohols, glycols” value was “soluble”.

For `[F-].[Na+]` [NaF, sodium fluoride, reference compound], the “mean value of R2” value in data set [2] (neutral medium, 12 teeth) was determined as 3.6. Further, the “average fluorine sampled in the two biopsies, acid pH compared with neutral pH” value in data set [2] (pH 3.5 versus pH 7.4) is 3.6.
